Reference: patent US20250263396A1, “CRYSTALLINE FORMS OF 3-(5-(2-HYDROXY-2- METHYLPROPOXY)-6-METHYPYRAZIN-2-YL)-1H-INDOLE-7-CARBONITRILE” (NIDO BIOSCIENCES, INC., priority 2024, published 2025)
Like-named read-outs stand apart in the source and are kept apart here.

Legend:
[1] = Equilibration with solvents; format: physicochemical
Method: Obtained suspensions were filtered through a 0.45 μm nylon membrane filter by centrifugation at 14,000 rpm. Solid parts (wet cakes) were investigated by XRPD. For samples with different XRPD patterns, additional analysis including DSC, TGA, ^1H-NMR were performed.
(§1) Obtained suspensions were filtered through a 0.45 μm nylon membrane filter by centrifugation at 14,000 rpm.
as §1

[2] = 24 hours; for XRPD: residual solids; for pH: supernatant
Method: Non-milled Form P (10 mg, purity 100%) was weighed into a 20 mL glass vial. 5 mL of solubility medium was added. Obtained suspensions were stirred at 37° C. at 400 rpm and sampled at 24 hours. The samples were centrifuged at 37 C at 14,000 rpm for 5 min. Supernatants were analyzed by HPLC and pH meter for solubility and pH value, respectively. Residual solids (wet cakes) from the 24 hours samples were also characterized by XRPD to determine physical form.

[3] = physchem; conditions: water, thermodynamic from solid, Approximate solubility
Method: Form P (5 mg, purity 100%) was weighed to a 2 mL glass vial. 20 μL aliquots of each solvent were added to dissolve the drug substance at 25 C. […] Vortex and sonication were applied to assist dissolution. Max. volume of each solvent added is 1 mL. For obtained suspensions (Exp. ID 1, 10 and 11) after addition of 1 mL solvent at 25° C., they were placed at 50° C. Approximate solubility was determined by visual observation.

[4] = Form change on heating, dehydration or desolvation (TGA, DSC, variable temperature XRPD); format: physicochemical; conditions: heated above 176° C. using milled Form P, variable temperature XRPD
Method: Relative stability of the anhydrates Form R and Form P was investigated by variable temperature XRPD and competitive equilibration experiments.
Relative stability of the anhydrates Form B, Form X, Form Y and Form C was investigated by variable temperature XRPD. Form B converted to Form X, Form Y and Form C after heating to 150° C., 176° C. and 180° C., respectively.

[5] = Solid state
Method: Bulk stability of Form P was evaluated at 25° C./92% RH in an open container, at 40° C./75% RH in an open container and at 60° C. in a tight container over 1 week, 2 weeks and 4 weeks. […] Samples after the stress were characterized by XRPD and HPLC and inspected for color change. Form P was also stressed under visible light for 1.2 million lux-hrs. at 25° C. Samples after the stress were characterized by XRPD and HPLC and inspected for color change.

[6] = Wet granulation simulation experiments; format: physicochemical
Method: Water or ethanol was added drop wise to about 10 mg of Form P until the sample is wetted sufficiently. Wet sample was ground gently with in a mortar and a pestle. Post granulation sample was dried under ambient condition for 10 min.
Water or ethanol was added drop wise to about 10 mg of Form C until the sample is wetted sufficiently. Wet sample was ground gently with in a mortar and a pestle. Post granulation sample was dried under ambient condition for 5 min.

[7] = pH 1.2 HCl buffer (0.1N), 37° C.
[8] = pH 3 citrate buffer (50 mM), 37° C.
[9] = pH 5 acetate buffer (50 mM), 37° C.
[10] = pH 7 phosphate buffer (50 mM), 37° C.
[11] = 25° C./92.5% RH, open container, 1 week
[12] = 25° C./92.5% RH, open container, 2 weeks
[13] = 25° C./92.5% RH, open container, 4 weeks
[14] = 40° C./75% RH, open container, 1 week
[15] = 40° C./75% RH, open container, 2 weeks
[16] = 40° C./75% RH, open container, 4 weeks
[17] = 60° C., tight container, 1 week
[18] = 60° C., tight container, 2 weeks
[19] = 60° C., tight container, 4 weeks
[20] = photo (visible light, closed, 1.2 million lux-hrs at 25° C.), clear vial
[21] = photo (visible light, closed, 1.2 million lux-hrs at 25° C.), wrapped with aluminum foil

Cc1nc(-c2c[nH]c3c(C#N)cccc23)cnc1OCC(C)(C)O [Form P, 3-(5-(2-hydroxy-2-methylpropoxy)-6-methylpyrazin-2-yl)-1H-indole-7-carbonitrile]
6.9: pH [2, 10]
medium discoloration: Color [5, 20]
No color change: Color [5, 11] | Color [5, 12] | Color [5, 13] | Color [5, 14] | Color [5, 15] | Color [5, 16] | Color [5, 17] | Color [5, 18] | Color [5, 19] | Color [5, 21]
100%: Purity, Bulk (HPLC) [5, 11] | Purity, Bulk (HPLC) [5, 12] | Purity, Bulk (HPLC) [5, 13] | Purity, Bulk (HPLC) [5, 14] | Purity, Bulk (HPLC) [5, 15] | Purity, Bulk (HPLC) [5, 16] | Purity, Bulk (HPLC) [5, 18] | Purity, Bulk (HPLC) [5, 19] | Purity, Bulk, wrapped with aluminum foil (HPLC) [5, 21]
99.9%: Purity, Bulk (HPLC) [5, 17]
Form P + one additional peak (It: XRPD [2, 9]
Form B + Form W: XRPD after equilibration ([1]; Methanol, 25° C., 2 weeks)
< 5000 µg/mL: solubility ([3]; 25 °C) | solubility ([3]; 50 °C)
converted to Form R: Form after heating [4]
Clear solution: Comments (appearance) ([1]; DMSO, 50° C., 1 week, (500 mg/mL)) | Comments (appearance) ([1]; NMP, 50° C., 1 week, (500 mg/mL)) | Comments (appearance) ([1]; THF, 50° C., 1 week, (250 mg/mL)) | Comments (appearance) ([1]; THF/water (v:v = 80:20) a.w. = 0.91, 50° C., 1 week, (500 mg/mL))
~60%: Purity, Bulk, clear vial (HPLC) [5, 20]
7.7: pH ([2]; Water, 37° C.)
Form U: XRPD after equilibration ([1]; DMSO, 25° C., 2 weeks)
4.9: pH ([2]; FeSSIF-v1, pH 5.0, 37° C.) | pH [2, 9]
1.5: pH ([2]; FaSSGF, pH 1.6, 37° C.)
Form P: XRPD after equilibration ([1]; 2-MeTHF, 25° C., 2 weeks) | XRPD after equilibration ([1]; 2-MeTHF, 50° C., 1 week) | XRPD after equilibration ([1]; 2-MeTHF/heptane (v:v = 1:1), 25° C., 2 weeks) | XRPD after equilibration ([1]; 2-MeTHF/heptane (v:v = 1:1), 50° C., 1 week) | XRPD after equilibration ([1]; 2-MeTHF/heptane (v:v = 3:1), 25° C., 2 weeks) | XRPD after equilibration ([1]; 2-MeTHF/heptane (v:v = 3:1), 50° C., 1 week) | XRPD after equilibration ([1]; 2-Propanol, 25° C., 2 weeks) | XRPD after equilibration ([1]; 2-Propanol, 50° C., 1 week) | XRPD after equilibration ([1]; Acetone, 25° C., 2 weeks) | XRPD after equilibration ([1]; Acetone, 50° C., 1 week) | XRPD after equilibration ([1]; Acetone/water (v:v = 30:70) a.w. = 0.92, 50° C., 1 week) | XRPD after equilibration ([1]; Acetonitrile, 25° C., 2 weeks) | XRPD after equilibration ([1]; Acetonitrile, 50° C., 1 week) | XRPD after equilibration ([1]; DMSO/water (v:v = 40:60) a.w. = 0.77, 50° C., 1 week) | XRPD after equilibration ([1]; Ethanol, 25° C., 2 weeks) | XRPD after equilibration ([1]; Ethanol, 50° C., 1 week) | XRPD after equilibration ([1]; Ethanol/water (v:v = 40:60) a.w. = 0.91, 25° C., 2 weeks) | XRPD after equilibration ([1]; Ethanol/water (v:v = 40:60) a.w. = 0.91, 50° C., 1 week) | XRPD after equilibration ([1]; Ethyl acetate, 25° C., 2 weeks) | XRPD after equilibration ([1]; Ethyl acetate, 50° C., 1 week) | XRPD after equilibration ([1]; Heptane, 25° C., 2 weeks) | XRPD after equilibration ([1]; Heptane, 50° C., 1 week) | XRPD after equilibration ([1]; Isopropyl acetate, 25° C., 2 weeks) | XRPD after equilibration ([1]; Isopropyl acetate, 50° C., 1 week) | XRPD after equilibration ([1]; MEK, 25° C., 2 weeks) | XRPD after equilibration ([1]; MEK, 50° C., 1 week) | XRPD after equilibration ([1]; MTBE, 25° C., 2 weeks) | XRPD after equilibration ([1]; MTBE, 50° C., 1 week) | XRPD after equilibration ([1]; Methanol, 50° C., 1 week) | XRPD after equilibration ([1]; THF, 25° C., 2 weeks) | XRPD after equilibration ([1]; Toluene, 25° C., 2 weeks) | XRPD after equilibration ([1]; Toluene, 50° C., 1 week) | XRPD after equilibration ([1]; Water, 25° C., 2 weeks) | XRPD after equilibration ([1]; Water, 50° C., 1 week) | XRPD ([2]; FaSSGF, pH 1.6, 37° C.) | XRPD ([2]; FaSSIF-v1, pH 6.5, 37° C.) | XRPD ([2]; FeSSIF-v1, pH 5.0, 37° C.) | XRPD ([2]; Water, 37° C.) | XRPD [2, 7] | XRPD [2, 8] | XRPD [2, 10] | XRPD ([6]; granulation solvent Ethanol) | XRPD ([6]; granulation solvent Water)
1.1: pH [2, 7]
No obvious change in crystallinity: Comments (crystallinity) ([6]; granulation solvent Ethanol) | Comments (crystallinity) ([6]; granulation solvent Water)
No form change: Bulk (XRPD) [5, 11] | Bulk (XRPD) [5, 12] | Bulk (XRPD) [5, 13] | Bulk (XRPD) [5, 14] | Bulk (XRPD) [5, 15] | Bulk (XRPD) [5, 16] | Bulk (XRPD) [5, 17] | Bulk (XRPD) [5, 18] | Bulk (XRPD) [5, 19] | Bulk, clear vial (XRPD) [5, 20]
3.0: pH [2, 8]
6.4: pH ([2]; FaSSIF-v1, pH 6.5, 37° C.)
Form Q: XRPD after equilibration ([1]; NMP, 25° C., 2 weeks)
